Measurements: patent US20110091570A1, “Compositions and Devices for Antisepsis and Anticoagulation” (priority 2008, published 2011)
Several values for one entry are separate records, joined by “and”; a condition that tells them apart may be missing. Equal values may be shown once.

Columns and labels:
Streptococcus pyogenes = experiment: Bactericidal activity of NCT without and with heparin (CFU counts); type: cell-based
Description: FIG. 3 presents a plot of bactericidal activity of 1% NCT without and with 125 IE/mL heparin against Streptococcus pyogenes at pH 7.1 and 37° C. Mean values±standard error of the mean of three independent experiments. P>0.05 between NCT without and NCT with heparin.
NCT was dissolved in 0.1 M phosphate buffer containing either 125 IE/mL heparin or no heparin. The final NCT concentration was 1%. Various bacterial species were grown in tryptic soy broth overnight, were washed twice in saline and then suspended in the NCT and NCT/heparin solutions. The species were Staphylococcus aureus (ATCC 25923), Escherichia coli (ATCC 11229), Streptococcus pyogenes, Staphylococcus epidermidis, Pseudomonas aeruginosa, Proteus mirabilis, and methicillin-resistant Staphylococcus aureus. Controls were performed with the foregoing bacterial species suspended in 0.1 M phosphate buffer without additives and in 0.1 M phosphate buffer containing 125 IE/mL heparin. All of the solutions were incubated at 37° C. and pH 7.1. After 1, 3, 5, 8, and 10 minutes, aliquots of 100 μL were removed and diluted 10-fold or 100-fold in 0.6% sodium thiosulfate solution to inactivate the NCT. Aliquots (50 μL) of these dilutions were spread on tryptic soy agar plates. The plates were incubated at 37° C. and colony forming units of bacteria were counted after 24 and 48 hours. […]

[1] = test system: Staphylococcus epidermidis; experiment: as above; type: cell-based
[2] = test system: Candida albicans, CBS 5982; experiment: Fungicidal activity of NCT without and with heparin (CFU counts); type: cell-based; conditions: 1% NCT, 125 IE/mL heparin, pH 7.1, 37° C., 30-120 min
Description: FIG. 9 presents a plot of fungicidal activity of 1% NCT without and with 125 IE/mL heparin against Candida albicans (CBS 5982) at pH 7.1 and 37° C. Mean values±standard error of the mean of three independent experiments. P>0.05 between NCT without and NCT with heparin.
NCT was dissolved in 0.1 M phosphate buffer containing either 125 IE/mL heparin or no heparin. The final NCT concentration was 1%. Yeast (Candida albicans, CBS 5982) grown in tryptic soy broth overnight was washed twice in saline and then suspended in the NCT and NCT/heparin solutions. Controls were performed with the yeast suspended in 0.1 M phosphate buffer without additives and in 0.1 M phosphate buffer containing 125 IE/mL heparin. After incubation times of 30, 60, 90 and 120 minutes at 37° C. and pH 7.1, aliquots of 100 μL were removed and diluted tenfold or 100-fold in 0.6% sodium thiosulfate solution to inactivate the NCT. Aliquots (50 μL) of these dilutions were spread on tryptic soy agar plates. The plates were incubated at 37° C. and colony forming units of Candida albicans were counted after 24 and 48 hours. The assays were performed three times serially and the mean count was reported (FIG. 9). […] Statistical analysis was performed by Student's paired t test and one way analysis of variance (P>0.05 between NCT without and NCT with heparin). […]

citrate blood [3] = experiment: Prothrombin time (PT), Thromborel S test; type: biochemical, human; conditions: for PT (%): Example 6, single volunteer; for Prothrombin time (PT) / Prothrombin time (PT), mean value: Example 7; for Prothrombin time (PT): individual subjects 1-11; for Prothrombin time (PT), mean value: mean of 11 subjects
Description: (§1) Whole blood was taken from volunteers and enriched with trisodium citrate (0.3 mL of a 0.106 molar solution per 3 mL whole blood) (S-Monovette®, Sarstedt, Nümbrecht, Germany). Routine coagulation tests were performed on the following samples:
(§2) The following commercial coagulation tests were performed according to the prescription of the manufacturer: prothrombin time (PT) was determined using Thromborel® S test (Dade Behring GmbH, Marburg, Germany); activated partial thromboplastin time (aPTT) was determined using Pathromtin* SL test (Dade Behring GmbH, Marburg, Germany); and thrombin time (TT) was determined using BC Thrombin Reagent test (Dade Behring GmbH, Marburg, Germany).
(§3) Whole blood was taken from a single volunteer and enriched with trisodium citrate (0.3 mL of a 0.106 molar solution per 3 mL whole blood) (S-Monovette®, Sarstedt, Nümbrecht, Germany). Portions of 1.8 mL citrate blood were mixed with 0.2 mL NCT in 0.9% saline. The following final (after dilution in blood) NCT concentrations were tested separately: 1% (55 mM); 0.5% (27.5 mM); 0.25% (13.75 mM); 0.1% (5.5 mM); 0.05% (2.75 mM); 0.025% (1.375 mM); and 0.01% (0.55 mM). A control without NCT was performed in parallel. The following commercial coagulation tests were performed according to the prescription of the manufacturer: prothrombin time (PT) was determined using Thromborel® S test (Dade Behring GmbH, Marburg, Germany), activated partial thromboplastin time (aPTT) was determined using Pathromtin* SL test (Dade Behring GmbH, Marburg, Germany); thrombin time (TT) was determined using BC Thrombin Reagent test (Dade Behring GmbH, Marburg, Germany); and fibrinogen was determined using Multifibren* U test (Dade Behring GmbH, Marburg, Germany).
(§4) Whole blood was taken from 11 volunteers and enriched with trisodium citrate (0.3 mL of a 0.106 molar solution per 3 mL whole blood) (S-Monovette®, Sarstedt, Nümbrecht, Germany). Commercial coagulation tests (as described in Example 6) were performed with the following samples: […]

citrate blood [4] = experiment: Thrombin time (TT), BC Thrombin Reagent test; type: biochemical, human; conditions: for TT / TT (sec): Example 6, single volunteer; for Thrombin time (TT) / Thrombin time (TT), mean value: Example 7; for Thrombin time (TT): individual subjects; for Thrombin time (TT), mean value: mean of 11 subjects
Description: as §1, §2, §3, §4

Antithrombin III = Antithrombin III in citrate blood; type: biochemical, human; conditions: Example 7; for Antithrombin III: individual subjects 1-11; for Antithrombin III, mean value: mean of 11 subjects
Description: as §4

Human Blood = conditions: Stief et al. [Ref 27]; cited from earlier work
external otitis = conditions: human external otitis [Ref 15]; cited from earlier work
[5] = 0.1% NCT, virtually identical experiments
[6] = 1% NCT, 125 IE/mL heparin, pH 7.1, 37° C., 1-10 min
[7] = Example 5, 1% NCT final concentration in citrate blood

In the case of `O=S(=O)(O)CCNCl` [NCT, N-chlorotaurine], the “influence of heparin on the killing of bacteria” value (Streptococcus pyogenes; [5]) is reported as “no statistically significant influence of heparin on the killing of bacteria”, the “killing activity of NCT with vs without heparin” value (Streptococcus pyogenes; [6]) is reported as “no difference in the killing activity” and the “influence of heparin on the killing of bacteria” value [1, 5] is reported as “no statistically significant influence of heparin on the killing of bacteria”. For the same molecule, the “killing activity of NCT with vs without heparin” value [1, 6] was “no difference in the killing activity”, the “killing activity of NCT without vs with heparin” value [2] was “no statistically significant difference in the killing activity” and the prothrombin time (citrate blood [3]; [7]) was “above the test limits”. The “PT (%)” value (citrate blood [3]; 0.01% (0.55 mM) NCT final) was 91.4%, the “PT (%)” value (citrate blood [3]; 0.025% (1.375 mM) NCT final) was 70.6% and the “PT (%)” value (citrate blood [3]; 0.05% (2.75 mM) NCT final) was 33.4%. The “PT (%)” value (citrate blood [3]; 0.1% (5.5 mM) NCT final) was “<limit”, the “PT (%)” value (citrate blood [3]; 0.25% (13.75 mM) NCT final) was “<limit” and the “PT (%)” value (citrate blood [3]; 0.5% (27.5 mM) NCT final) was “<limit”. For the same molecule, the “PT (%)” value (citrate blood [3]; 1% (55 mM) NCT final) was “<limit”, the “Prothrombin time (PT)” value (citrate blood [3]; 0.01% NCT) was 70% and 59% and 95% and 62% and 88% and 61% and 86% and 72% and 77% and 74% and 79% and the “Prothrombin time (PT), mean value” (citrate blood [3]; 0.01% NCT) was 74.8%. The “Prothrombin time (PT)” value (citrate blood [3]; 0.025% NCT) was 28% and 20% and 50% and 10% and 21% and 16% (2×) and 25% and 36% and 24% and 32%, the “Prothrombin time (PT), mean value” (citrate blood [3]; 0.025% NCT) was 25.3% and the thrombin time (citrate blood [4]; [7]) was “above the test limits”. The “TT” value (citrate blood [4]; 0.01% (0.55 mM) NCT final) was 19.5 s, the “TT” value (citrate blood [4]; 0.025% (1.375 mM) NCT final) was 26.6 s and the “TT” value (citrate blood [4]; 0.05% (2.75 mM) NCT final) was 48.8 s. For the same molecule, the “TT” value (citrate blood [4]; 0.1% (5.5 mM) NCT final) was 92.2 s, the “TT” value (citrate blood [4]; 0.25% (13.75 mM) NCT final) was 101.8 s and the “TT (sec)” value (citrate blood [4]; 0.5% (27.5 mM) NCT final) was “>limit”. For the same molecule, the “TT (sec)” value (citrate blood [4]; 1% (55 mM) NCT final) was “>limit”, the “Thrombin time (TT)” value (citrate blood [4]; 0.01% NCT) was 22 sec (5×) and 24 sec (2×) and 32 sec and 23 sec (3×) and the “Thrombin time (TT), mean value” (citrate blood [4]; 0.01% NCT) was 23.5 s. For the same molecule, the “Thrombin time (TT)” value (citrate blood [4]; 0.025% NCT) was 44 sec (2×) and 39 sec and 59 sec and 43 sec and 52 sec and 55 sec and 48 sec and 40 sec and 45 sec and 35 sec, the “Thrombin time (TT), mean value” (citrate blood [4]; 0.025% NCT) was 45.8 s and the “Antithrombin III” value (Antithrombin III; 0.01% NCT) was 92% and 79% and 101% and 85% and 82% and 81% and 94% and 75% and 95% and 80% and 84%. The “Antithrombin III, mean value” (Antithrombin III; 0.01% NCT) was 86.2%, the “Antithrombin III” value (Antithrombin III; 0.025% NCT) was 90% and 81% and 101% and 79% (3×) and 80% and 87% and 73% and 94% and 78% and the “Antithrombin III, mean value” (Antithrombin III; 0.025% NCT) was 83.7%. The “concentration with anticoagulant effect (not below)” value (Human Blood) was 2 to 3 mmol/L and the “efficacy versus standard medication” value (external otitis) was “more effective than a standard medication”.
